Columns and labels:
larkspur = assay: root induction in larkspur; type: in vivo; details: root formation larkspur, elicitor 10^−10 M
Description: (§1) The elicitor uridine was tested on shoot regeneration in saintpaulia, lateral root formation in pea, cell division in tobacco and root induction in larkspur and apple.

tobacco = assay: cell division in tobacco; type: cell-based; details: elicitor 10^−10 M
Description: as §1

saintpaulia = assay: shoot regeneration in saintpaulia; type: cell-based; details: elicitor 10^−10 M
Description: as §1

pea = assay: lateral root formation in pea; type: in vivo; details: elicitor 10^−8 to 10^−16 M
Description: as §1

apple stalk slices = assay: rooting regeneration on apple stalk slices with elicitors; type: cell-based; details: elicitor 10^−10 M; apple stalk slices
Description: The effect of the elicitors on rooting regeneration on apple stalk slices was studied. The stalk slices were incubated on medium with elicitors in combination with a sub-optimal auxin concentration (1 μM indolebutyric acid or 1 μM indoleacetic acid) which were added for 1 or 3 days to the plant tissue for testing. The increase was measured in the number of regenerated roots compared to the auxin control.

## O=c1ccn([C@@H]2O[C@H](CO)[C@@H](O)[C@H]2O)c(=O)[nH]1 [uridine]
larkspur
  increased regeneration in relation to control (auxin alone): 50%
tobacco
  increased regeneration in relation to control (auxin alone): 75%
saintpaulia
  increased regeneration in relation to control (auxin alone): 100%
pea
  increased regeneration in relation to control (auxin alone): 100%
Apple stalk slices
  increased regeneration in relation to control (auxin alone): 75%

From patent publication US20030027722A1, “Influencing the activity of plant growth regulators” (priority 1998, published 2003)
